From patent US8138153B2, “Potassium channel modulator peptide” (National Centre for Biological Sciences, priority 2004, dated 2012)
“Also recorded” adds a separate entry of the source.

Tested on: K^+ currents (voltage dependent potassium channels) in DRG neurons
Type: cell-based, Wistar rats

FHGGSWYRFPWGY-NH2 [Mo1659]
Effect on sustained (non-inactivating) K^+ current component: predominantly affects the sustained K^+ current component; also recorded: specifically acts on the non-inactivating K^+ currents
